Structures can show the parent of a compound that is named as a salt.

These results are taken from paper PMC9343080, “Distribution- and Metabolism-Based Drug Discovery: A Potassium-Competitive Acid Blocker as a Proof of Concept” (Research, 2022).

Details of data set [1]: method as in PMID 27414183. As to conditions: human hepatocytes; ref [42]; cited from earlier work.
The conditions of data set [2]: cited from earlier work.
Data set [3] is described as follows: log D7.4 measurement (1-octanol/PBS pH 7.4). It counts as physicochemical. The note with it: 1-octanol/PBS, pH 7.4, pH 7.4. Here is the method: (§1) Procedure for pKa and log D7.4 measurements. The pKa was determined using pH-metric Method from DMSO Stock Solution. Procedure for Log D determinations: 15 µL of stock solutions of test compounds and control compound was placed in order into their proper 96-well rack. 500 µL of PBS saturated 1-octanol was added into each vial of the cap-less Log D plate followed by the addition of 500 µL of 1-octanol saturated PBS (pH 7.4). One stir stick was added to each vial and a molded PTFE/Silicone plug was used to seal each vial. Then the Log D plate was transferred to the Eppendorf Thermomixer Comfort plate shaker and shaken at 25°C at 1,100 RPM for 1 hour. After completion of 1 hour, plugs were removed and the stir sticks were removed using a big magnet. The samples were then centrifuged at 25°C at 20,000 g for 20 minutes to separate the phases, and pipette and syringe were used to remove the upper (1-octanol) and lower (buffer) phases to the empty tubes, respectively. Aliquots of 5 µL were taken from upper phases followed by addition of 495 µL of a mixture of H2O and acetonitrile (1:1 in v/v). Vortex for 1 minute, and then aliquots of 50 µL were taken from the diluent followed by addition of 450 µL of a mixture of H2O and acetonitrile (1:1 in v/v). And aliquots of 50 µL were taken from lower phases followed by addition of 450 µL of a mixture of H2O and acetonitrile (1:1 in v/v). 200 μL of diluent was transferred to a new 96-well plate for LC-MS/MS analysis. The dilution factor was changed according to the Log D value and the LC-MS signal response. The concentrations of test compound and control compound in 1-octanol/buffer solution were evaluated by LC-MS/MS. The Log D values of the test compounds and control compound were calculated as follows: […]

The target in data set [4] is T1, rabbit gastric H+, K+-ATPase (Oryctolagus cuniculus, UniProt P27112).
T1 construct: using rabbit gastric H^+, K^+-ATPase; from tissue; host or cells: rabbit stomach (gastric preparation; the method of preparation is not described)
Description: In vitro enzymatic activity assay (inorganic phosphate from ATP hydrolysis). It is filed as biochemical. Here is the method:
The in vitro enzymatic activity was calculated by measuring the inorganic phosphate produced by the hydrolysis of ATP using rabbit gastric H^+, K^+-ATPase. 0.25 μg enzyme was preincubated at 37°C for 30 min in Tris-HCl buffer (2.0 mL, 50 mM, pH 6.5) containing 5 mM MgCl2, 10 μM valinomycin, 0 or 20 mM KCl, and different concentrations of SH-337 and vonoprazan. The reaction was initiated by adding 5 μL of 5 mM ATP 2Na, and the preparation was incubated for 30 min at 37°C and halted by the addition of 100 μL of malachite green reagent (0.12% malachite green, 7.5% ammonium molybdate, and 11% tween 20 were mixed in a volume ratio of 100 : 25 : 2). H^+, K^+-ATPase activity was calculated after subtracting the enzyme activity in the absence of KCl.

Data set [5] in a line: pKa measurement (pH-metric method). The note with it: read-out: pKa. It is filed as physicochemical. Here is the method:
as §1

A short description of data set [6]: Metabolite profiling, range over rat and human hepatocytes. It is filed as in vitro ADME. The note with it: rat and human hepatocytes after 60 and 120 min incubation. Here is the method: (§2) SH-337 was incubated with rat or human hepatocytes at a concentration of 1.0 × 10^6 cells/mL for 60 min or 120 min (rat 60 min, human 120 min) at 37°C in a CO2 incubator. The samples were precipitated with acetonitrile at 1 : 2 and further centrifuged; the supernatants were dried with a stream of N2 gas. The residues were reconstituted with 300 μL of 10% acetonitrile/H2O (0.1% TFA) and analyzed by LC-MS/MS. The assays were pursued under the conditions provided in Supplementary Tables S5–S8.

Data set [7] is described as follows: Metabolite profiling, range over rat and human liver microsomes. It counts as in vitro ADME. The note with it: rat and human microsomes after 30 and 60 min incubation. The method, then: Liver microsomes (1 mg protein/mL) were suspended in phosphate buffer (50 mM, pH 7.4) containing MgCl2 (6 mM). […] The reactions were initiated at 37°C by the addition of 1 mM NADPH and terminated at 30 min or 60 min (30 min for rat; 60 min for human). The samples were precipitated with acetonitrile at 1 : 2 and further centrifuged; the supernatants were dried with a stream of N2 gas. The residues were reconstituted with 300 μL of 10% acetonitrile/H2O (0.1% TFA) and analyzed by LC-MS/MS. The assays were pursued under the conditions provided in Supplementary Tables S4, S6, S7, and S8.
(Liver microsomes are a subcellular fraction often used to study metabolism.)

The nature of data set [8]: Metabolite identification and profiling in rat hepatocytes. As to conditions: SH-337, rat hepatocytes, 60 min incubation. It counts as in vitro ADME. Here is the method: as §2
Setting [9] is: rats, i.g. 2 mg/kg vonoprazan, ref [43].

T1 sequence (P27112 whole entry): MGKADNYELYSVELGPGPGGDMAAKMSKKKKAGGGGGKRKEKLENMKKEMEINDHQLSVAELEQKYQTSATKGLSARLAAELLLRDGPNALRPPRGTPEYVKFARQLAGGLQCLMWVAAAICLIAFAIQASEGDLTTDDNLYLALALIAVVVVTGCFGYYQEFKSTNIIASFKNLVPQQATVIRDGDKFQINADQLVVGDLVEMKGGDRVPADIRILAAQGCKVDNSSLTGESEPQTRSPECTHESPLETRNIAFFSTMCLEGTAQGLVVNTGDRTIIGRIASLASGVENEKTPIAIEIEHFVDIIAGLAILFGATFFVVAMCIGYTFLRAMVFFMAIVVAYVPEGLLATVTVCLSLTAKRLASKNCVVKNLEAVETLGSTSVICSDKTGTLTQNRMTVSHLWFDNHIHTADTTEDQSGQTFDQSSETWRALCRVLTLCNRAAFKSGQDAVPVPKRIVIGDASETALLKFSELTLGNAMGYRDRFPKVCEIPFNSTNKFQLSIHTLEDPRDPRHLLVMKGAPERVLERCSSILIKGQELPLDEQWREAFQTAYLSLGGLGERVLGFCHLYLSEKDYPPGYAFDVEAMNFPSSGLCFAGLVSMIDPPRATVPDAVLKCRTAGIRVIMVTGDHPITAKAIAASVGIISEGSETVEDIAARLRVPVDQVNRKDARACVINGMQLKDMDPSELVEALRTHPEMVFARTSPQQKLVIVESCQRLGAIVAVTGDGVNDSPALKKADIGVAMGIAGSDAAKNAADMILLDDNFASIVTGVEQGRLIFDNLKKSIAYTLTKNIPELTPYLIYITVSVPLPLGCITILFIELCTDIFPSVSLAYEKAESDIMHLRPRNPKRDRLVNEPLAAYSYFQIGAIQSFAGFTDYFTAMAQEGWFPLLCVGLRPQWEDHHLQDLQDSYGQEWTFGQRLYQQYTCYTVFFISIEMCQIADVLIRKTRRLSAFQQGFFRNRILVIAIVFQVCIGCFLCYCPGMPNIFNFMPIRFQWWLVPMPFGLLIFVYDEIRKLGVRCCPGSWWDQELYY
T1 sequence (P18597 whole entry partner): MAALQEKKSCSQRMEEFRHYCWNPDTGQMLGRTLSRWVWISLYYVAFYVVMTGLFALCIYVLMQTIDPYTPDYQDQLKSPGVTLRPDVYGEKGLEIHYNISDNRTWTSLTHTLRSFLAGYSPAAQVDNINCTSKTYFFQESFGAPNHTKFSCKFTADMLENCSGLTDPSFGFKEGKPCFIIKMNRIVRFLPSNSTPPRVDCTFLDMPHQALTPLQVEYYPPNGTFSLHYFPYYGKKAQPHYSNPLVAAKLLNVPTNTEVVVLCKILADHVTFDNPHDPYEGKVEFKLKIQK

As for `C/[N+]([O-])=C/c1cc(-c2ccccc2F)n(S(=O)(=O)c2cccnc2)c1` [M-III], the “share in the in vitro metabolic profile of vonoprazan” value (“share” for short) in data set [1] was 4.1%.

As for `O=C(O)c1c[nH]c(-c2ccccc2F)c1` [M-II], the “share” value in data set [1] was 0.5%.

With `CN(Cc1cc(-c2ccc(O)cc2F)n(S(=O)(=O)c2cccnc2)c1)S(=O)(=O)O` [M-IV-Sul], the “share” value in data set [1] is recorded as 28%.

As for `O=C(O)c1cc(-c2ccccc2F)n(S(=O)(=O)c2cccnc2)c1` [M-I], the “share” value in data set [1] is 18%. The AUC0–24 in the liver in data set [2] (after oral dosing of 2.0 mg/kg vonoprazan, ref [43]) is 18400 ng·h/g. In addition, the “fold higher levels compared with those of vonoprazan” value in data set [2] (plasma, liver and kidney, rat model, ref [44]) is 4.3- to 58 fold. In data set [2] (setting [9]), the “AUC0–24, Liver” value is recorded as 18404.0 ng equiv. h/mL or g; the “AUC0–24, Plasma” value is reported as 4392.0 ng equiv. h/mL or g; the “AUC0–24, Stomach” value is 918.0 ng equiv. h/mL or g.

As for `NCc1cc(-c2ccccc2F)n(S(=O)(=O)c2cccnc2)c1` [N-demethylated vonoprazan], in data set [1], the “share” value is on record as 30%.

As a reminder, the logD is the decadic logarithm of the distribution of all forms, ionised or not, between an organic phase and buffer at a given pH. Read a high logD as higher lipophilicity. The IC50 is the concentration needed to halve the response being measured. As usually defined, the pKa is the pH at which an ionisable group is half protonated. Compound `CNCc1cc(-c2ccc(OCc3cnn(C)c3)cc2F)n(S(=O)(=O)c2cccnc2)c1` [S1, 1-(5-(2-fluoro-4-((1-methyl-1H-pyrazol-4-yl)methoxy)phenyl)-1-(pyridin-3-ylsulfonyl)-1H-pyrrol-3-yl)-N-methylmethanamine fumarate] came in with a pH-dependent lipophilicity (logD) at 1 h in data set [3] of 0.5. The compound further registered an IC50 in data set [4] of 57.8 nM. Besides, the pKa in data set [5] is 9.26.

`CNCc1cc(-c2ccc(OCC3COC3)cc2F)n(S(=O)(=O)c2cccnc2)c1` [S2, 1-(5-(2-fluoro-4-(oxetan-3-ylmethoxy)phenyl)-1-(pyridin-3-ylsulfonyl)-1H-pyrrol-3-yl)-N-methylmethanamine dihydrochloride]: in data set [3], the logD at 1 h came out at 0.91. Further, in data set [4], the 50% inhibitory concentration (IC50) was 129 nM. Moreover, the pKa in data set [5] was 9.13.

`CN(Cc1cc(-c2ccc(OCC3CC3)cc2F)n(S(=O)(=O)c2cccnc2)c1)S(=O)(=O)O` [Sulfated SH-337]: in data set [6], the “Percentage of all SH-337 metabolites in hepatocytes” value is 0.13%. In addition, in data set [7], the “Percentage of all SH-337 metabolites in microsomes” value is recorded as 0%. In addition, the “Relative peak area, RHeps” value in data set [8] is 0.1%.
